Measurements taken from patent US5403934A, “Heterocyclic compounds” (Burroughs Wellcome Co., priority 1990, dated 1995).

What was measured:
Plasmodium falciparum = assay: In vitro activity vs. Plasmodium falciparum (modified semi-automated microdilution technique of Desjardins et al, [3H]-hypoxanthine); format: cell-based; conditions: Erythrocyte, human erythrocytes, RPMI 1640 + 10% human plasma, 37° C, number of tests in parentheses in own column
Description: 1. In vitro Activity vs. Plasmodium falciparum The in vitro activity of the test compounds was determined using a modification of the semi-automated microdilution technique of Desjardins et al (1979). Initial dilutions were prepared from 1/100th molecular weight (in mg) of the compounds dissolved in dry ethanol, with the first 1:100 dilution being in ethanol and subsequent dilutions in RPMI 1640 medium supplemented with 10% v/v human plasma. Serial 1:2 drug dilutions were prepared in microtitration trays using microdiluters, each dilution being set up in triplicate. To this was added RPMI 1640 medium supplemented with 10% v/v human plasma, fresh and infected type A Rhesus positive human erythrocytes to yield a haematocrit of 3% and a parasitaemia of 0.25-0.5%. [^3 H]-hypoxanthine was added to give a final concentration of 12.5-16 μCi/ml of culture. The plates were sealed and incubated in a modular incubator in a gas mixture of 5% O2; 3% CO2 and 92% N2 by volume at 37° C. The test was completed as described by Desjardins et at (1979). Data were analysed to yield IC50 values by best fit to a sigmoidal dose-response curve.

P. yoelii = assay: Mouse 4-day suppressive test vs P. yoelii; format: in vivo; conditions: Plasmodium yoelii, P. yoelii YM strain, 7 oral doses in 4 days, CD1 mice, parasitaemia day 5
Description: 2. In vivo Activity vs. P.yoelii in the Mouse
In vivo activity was determined using the modified 4-day suppressive test involving an infection of the YM strain of P.yoelii by 3×10^6 parasitized erythrocytes/ml and 7 oral doses given in 4 days in CD1 mice. Drugs were formulated by ball milling overnight in 0.25% celacol with stainless steel balls to form a fine particle suspension. The total requirement was formulated at the beginning of a test and thereafter stored at 4° C. On the morning of day 5 smears of tail blood were prepared from each mouse, the parasitaemias counted and the inhibition as compared to control animals calculated. Data were analysed to yield ED50 values by the best fit to a sigmoidal dose response curve, and the results are presented in Table 2 below.

IC50 (Plasmodium falciparum)	Compound	ED50 (P. yoelii)
2500 nM	Cc1cc(=O)c(-c2ccc(Oc3ccc(Cl)cc3)cc2)c(C)[nH]1 [Example 1, 3-(4-(4-Chlorophenoxy)phenyl)-2,6-dimethylpyridin-4(1H)-one]	2.5 mg/kg
200 nM	Cc1[nH]c(C)c(-c2ccc(Oc3ccc(Cl)cc3)cc2)c(=O)c1Br [Example 2, 3-Bromo-5-[4-(4-chlorophenoxy)phenyl]-2,6-dimethylpyridin-4(1H)-one]	0.7 mg/kg
1400 nM	Cc1[nH]c(C)c(-c2ccc(Oc3ccc(Cl)cc3)cc2)c(=O)c1Cl [Example 3, 3-Chloro-5-(4-(4-chlorophenoxy)phenyl)-2,6-dimethylpyridin-4(1H)-one]	1.6 mg/kg
1100 nM	Cc1cc(=O)c(-c2ccc(Oc3ccc(C(F)(F)F)cc3)cc2)c(C)[nH]1 [Example 4, 3-(4-(4-Trifluoromethylphenoxy)phenyl)-2,6-dimethylpyridin-4(1H)-one]	1.25 mg/kg
220 nM	Cc1[nH]c(C)c(-c2ccc(Oc3ccc(C(F)(F)F)cc3)cc2)c(=O)c1Br [Example 5, 3-Bromo-5-(4-(4-trifluoromethylphenoxy)phenyl)-2,6-dimethylpyridin-4(1H)-one]	0.26 mg/kg
8400 nM	Cc1cc(=O)c(-c2ccc(-c3ccc(Cl)cc3)cc2)c(C)[nH]1 [Example 6, 3-(4'-Chloro-4-biphenylyl)-2,6-dimethylpyridin-4(1H)-one]	1.6 mg/kg
2000 nM	Cc1[nH]c(C)c(-c2ccc(-c3ccc(Cl)cc3)cc2)c(=O)c1Br [Example 7, 3-Bromo-5-(4'-chloro-4-biphenylyl)-2,6-dimethylpyridin-4(1H)-one]	1.4 mg/kg
500 nM	Cc1[nH]c(C)c(-c2ccc(-c3ccc(Cl)cc3)cc2)c(=O)c1Cl [Example 8, 3-Chloro-5-(4'-chloro-4-biphenylyl)-2,6-dimethylpyridin-4(1H)-one]	0.6 mg/kg
2300 nM	CCCCCCCCc1c(C)[nH]c(C)c(C#N)c1=O [Example 10, 5-Cyano-2,6-dimethyl-3-octylpyridin-4(1H)-one]	–
23500 nM	Cc1c(Br)c(=O)c(-c2ccc(Cl)cc2)c(C)n1C [Example 12, 3-Bromo-5-(4-Chlorophenyl)-1,2,6-trimethylpyridin-4-one]	16.4 mg/kg
23 nM	Cc1[nH]c(C)c(-c2ccc(Oc3ccc(OC(F)(F)F)cc3)cc2)c(=O)c1Br [Example 14, 3-Bromo-5-(4-(4-trifluoromethoxyphenoxy)phenyl)-2,6-dimethylpyridin-4(1H)-one]	0.34 mg/kg
20 nM	Cc1[nH]c(C)c(-c2ccc(Oc3ccc(OC(F)(F)F)cc3)cc2)c(=O)c1Cl [Example 15, 3-Chloro-5-(4-(4-trifluoromethoxyphenoxy)phenyl)-2,6-dimethylpyridin-4(1H)-one]	0.19 mg/kg
1600 nM	Cc1[nH]c(C)c(-c2ccc(Oc3ccc([S+](C)[O-])cc3)cc2)c(=O)c1Br (stereo not drawn) [Example 16, 3-Bromo-2,6-dimethyl-5-(4-(4-methylsulphinylphenoxy)phenyl)pyridin-4(1H)-one]	–
